Experimental data reported in publication PMC6212778, “Site-specific amino acid substitution in dodecameric peptides determines the stability and unfolding of c-MYC quadruplex promoting apoptosis in cancer cells” (Nucleic Acids Research, 2018).

Columns and labels:
[1] = test system: telomere (Tel26) quadruplex; assay: ITC of peptides with telomeric quadruplex; assay type: binding, human; conditions: potassium phosphate buffer pH 7.0
Description: (§1) Thermodynamic attributes of the interaction profiles between peptides and putative quadruplex sequences are analysed by ITC using iTC200 Microcalorimeter at 25°C. Synthetic peptides (FK13, KR12A, KR12B, KR12C, KR12D and KR12E) are diluted to 20 μM in 10 mM Potassium phosphate buffer (10 mM K2HPO4 + 10 mM KH2PO4) containing 0.1 M KCl (pH 7.0). Syringe is filled with 500 μM quadruplex sequences present in the upstream promoter regions of c-MYC (Pu27, Pu19, and Myc22), BCL-2 (Pu30), VEGF-A (Pu22), KRAS (Pu32) oncogenes, and telomere (Tel26) dissolved into the same buffer. We also carried out the experiment for KR12C and Pu27 using MCF-7 nuclear extract as the solvent to mimic the cellular microenvironment and impart macromolecular crowding during binding events. Same concentration of oligonucleotides is injected into the identical buffer or in nuclear extract without peptides to normalize the heat of dilution of peptide-quadruplex association to that of the control before curve-fitting. […] The heat of reaction per injection (μcal/s) is determined by integration of the peak areas using in-built Origin 7.0 software that provides the best-fit values of enthalpy (ΔH) and entropy (ΔS) of binding, the binding stoichiometry (n), and dissociation constant (Kd) (Supplementary Tables S5(a), S5(b) and S5(c)). […]

BCL-2 (Pu30) quadruplex = assay: ITC of peptides with BCL-2 quadruplex; assay type: binding, human; conditions: potassium phosphate buffer pH 7.0
Description: as §1

MCF-7 cells = assay: Western blot / real time PCR of apoptotic markers and signalling proteins; assay type: cell-based, human; conditions: MCF-7, 5 and 10 μM KR12C, 24 h
Description: To observe the effect of KR12C in c-MYC protein expression, and to decipher the peptide-driven signaling pathway to trigger apoptosis within cancer cells, we have performed an array of Western Blot experiments. MCF-7 cells are seeded at a density of 7 × 10^5 cells per well into 60 mm dishes and allowed to attach overnight. Next day cells are serum starved for 18 h. At the end of 18 h fresh medium supplemented with 2% FBS +1% antibiotic and anti-mycotic is added. Then cells are treated with 5 μM and 10 μM KR12C. Recombinant VEGF is added at a concentration of 200 ng/ml of medium either alone or in combination with 10 μM KR12C. Cells are harvested after 24 hrs of treatment.
Whole cell lysate is prepared using the Cell Lysis Buffer (Cell Signalling Technologies) according to the manufacturer's protocol supplemented with Phenylmethylsulfonyl fluoride (PMSF) (Merck) and Protease Inhibitory Cocktail (PIC) (Merck). 40 μg of protein is separated using sodium dodecyl sulfate polyacrylamide gel electrophoresis (SDS-PAGE). (4% stacking gel and 12–15% resolving gel). Samples are transferred to polyvinylidene fluoride (PVDF) membranes (Immobilon-P, EMD Millipore). Membranes were blocked using 5% milk in Tris-buffered saline (TBS) with Tween 20 (Amresco) for 45 min at room temperature. Membranes are then incubated overnight at 4°C with the following antibodies: anti-c-Myc (Rabbit polyclonal, 1:500 dil. Cell Signalling Technology Inc.), Mouse anti-Bcl2 (Mouse monoclonal, 1:250 dil. Santacruz Biotechnology Inc.), anti E2F1, anti VEGF-A, anti-P53, anti-APAF1, anti-Caspase 8, anti-PARP (Abcam), anti-β-actin (Mouse monoclonal, 1:10 000 dil. Santacruz Biotechnology Inc.). Next membranes are incubated with peroxidase conjugated anti-rabbit IgG raised in Goat (Sigma, 1:8000 dil.) and peroxidase conjugated anti-mouse IgG raised in Rabbit (Sigma, 1:10 000 dil.) for 2 h at room temperature. Target proteins are visualised on membranes using Clarity TM Western ECL substrate (Bio-rad) and images are captured using ChemiDoc MP system with Image Lab™ software for PC version 6.0 (Bio-rad).

KRAS (Pu32) quadruplex = assay: ITC of peptides with KRAS quadruplex; assay type: binding, human; conditions: potassium phosphate buffer pH 7.0
Description: as §1

VEGF-A (Pu22) quadruplex = assay: ITC of peptides with VEGF-A quadruplex; assay type: binding, human; conditions: potassium phosphate buffer pH 7.0
Description: as §1

[2] = test system: c-MYC quadruplex isomer Pu19; assay: CD melting of free and peptide-bound Pu19; assay type: binding, human; conditions: 10 μM quadruplex, two-state model
Description: To understand the role of peptides (FK13, KR12A, KR12B, KR12C, KR12D and KR12E) in stabilizing native and truncated isomers of c-MYC G-quadruplex, we have performed temperature-driven CD melting experiments for free and peptide-bound complexes in JASCO-J815 CD spectrometer. We have gradually titrated the peptides into 10 μM of putative quadruplexes and acquired the spectra after 5 min of peptide addition to allow complex formation and equilibration. Samples are heated from 20 to 95°C having the temperature gradient and the delay time of 2.5°C/min and 150 s respectively. Since the quadruplexes unfold at higher temperatures and revert back to their initial conformations upon renaturation, we have assumed a ‘two-state transition’ model (folded and unfolded) to analyze the melting curves and estimated the melting temperatures (Tm) by fitting the data points into sigmoidal curves (Supplementary information Section 1).

c-MYC quadruplex (Pu27) = assay: ITC of KR12C with Pu27 under macromolecular crowding (MCF-7 nuclear extract); assay type: binding, human
Description: as §1

Substance: N – KRIVKLIKKWLR – C [KR12C]
- fold decreased affinity for telomeric quadruplex compared to c-MYC quadruplexes [1]: ~4 fold
- binding affinity with BCL-2 quadruplex (BCL-2 (Pu30) quadruplex): very poor or no binding affinity
- fold decreased affinity for BCL-2 quadruplex compared to c-MYC quadruplexes (BCL-2 (Pu30) quadruplex): ~3 fold
- expression of p53, cleaved PARP, caspase 8 and APAF-1 (MCF-7 cells; western blot): significant upregulation
- BCL-2 expression at transcription and translation level (MCF-7 cells; western blot and real time PCR): suppressed
- VEGF-A and E2F-1 expression (MCF-7 cells; western blot and real time PCR): significantly suppressed
- binding affinity with KRAS quadruplex (KRAS (Pu32) quadruplex): very poor or no binding affinity
- binding affinity with VEGF-A quadruplex (VEGF-A (Pu22) quadruplex): very poor or no binding affinity
- rise in the Tm of Pu19 upon peptide binding [2]: 10.87 °C
- Kd (c-MYC quadruplex (Pu27); 25°C, MCF-7 nuclear extract as solvent, single-site model, background subtracted): 901 nM
- fold increase in binding affinity for Pu27 in MCF-7 nuclear extract versus potassium phosphate buffer (c-MYC quadruplex (Pu27); macromolecular crowding): ~8 fold
